pIC50: −log10 of the molar value.

One data set deals with PBMC. Description: Cytotoxicity against human PBMC cells after 72 hrs by CellTiter 96 aqueous one solution assay. Format: cell-based.
The test system of another data set is 697. The data set is described as follows: Cytotoxicity against human 697 cells after 48 hrs by CellTiter 96 aqueous one solution assay. Particulars: Homo sapiens, 697, 48 h; call rule not given here. Format: cell-based.
Data set [1] can be described thus: Selectivity ratio of IC50 for C-terminal GST-tagged human HDAC5 to IC50 for human N-terminal GST-tagged HDAC6 expressed in baculovirus infected sf9 insect cells.
Data set [2] in a line: Stability in human liver S9 fraction assessed as parent compound remaining at 5 uM after 90 mins in presence of NADPH by LC-MS/MS analysis. Format: ADME, subcellular. Particulars: read-out: Stability.
A short description of data set [3]: Selectivity ratio of IC50 for N-terminal GST-tagged human HDAC7 (518 to end residues) expressed in baculovirus infected sf9 insect cells to IC50 for human N-terminal GST-tagged HDAC6 expressed in baculovirus infected sf9 insect cells.
A short description of data set [4]: Selectivity ratio of IC50 for N-terminal Flag-tagged human HDAC10 (2 to 631 residues) expressed in baculovirus infected sf9 insect cells to IC50 for human N-terminal GST-tagged HDAC6 expressed in baculovirus infected sf9 insect cells.
Data set [5] is described as follows: Stability in rat plasma assessed as parent compound remaining at 100 uM after 4 hrs by LC-MS/MS analysis. Format: ADME, cell-free. The settings on record: read-out: Stability.
Data set [6] is described as follows: Selectivity ratio of IC50 for C-terminal His-tagged human HDAC8 expressed in baculovirus infected sf9 insect cells to IC50 for human N-terminal GST-tagged HDAC6 expressed in baculovirus infected sf9 insect cells.
The nature of data set [7]: Selectivity ratio of IC50 for human HDAC4 expressed in baculovirus infected sf9 insect cells to IC50 for human N-terminal GST-tagged HDAC6 expressed in baculovirus infected sf9 insect cells.
Data set [8] can be described thus: Selectivity ratio of IC50 for N-terminal His-tagged human HDAC11 expressed in baculovirus expression system to IC50 for human N-terminal GST-tagged HDAC6 expressed in baculovirus infected sf9 insect cells.
A short description of data set [9]: Stability in human plasma assessed as parent compound remaining at 100 uM after 4 hrs by LC-MS/MS analysis. The format is ADME, cell-free. Particulars: read-out: Stability.
Data set [10] can be described thus: Selectivity ratio of IC50 for C-terminal His-tagged human HDAC9 (604 to 1066 residues) expressed in baculovirus infected sf9 insect cells to IC50 for human N-terminal GST-tagged HDAC6 expressed in baculovirus infected sf9 insect cells.
A short description of data set [11]: Stability in rat liver S9 fraction assessed as parent compound remaining at 5 uM after 90 mins in presence of NADPH by LC-MS/MS analysis. The format is ADME, subcellular. The settings on record: read-out: Stability.
The subject of another data set is Histone deacetylase. Description: Inhibition of HDAC in human 697 cells assessed as increase in H3 acetylation at 1000 nM incubated for 16 hrs by ELISA. The format is cell-based. The settings on record: human, 697, 16 h, 1 µM. (An ELISA detects its analyte on a solid surface through an enzyme-linked reagent.)
Data set [12] deals with T1, Protein deacetylase HDAC6 (Homo sapiens, UniProt Q9UBN7).
T1 sequence (Q9UBN7 whole entry): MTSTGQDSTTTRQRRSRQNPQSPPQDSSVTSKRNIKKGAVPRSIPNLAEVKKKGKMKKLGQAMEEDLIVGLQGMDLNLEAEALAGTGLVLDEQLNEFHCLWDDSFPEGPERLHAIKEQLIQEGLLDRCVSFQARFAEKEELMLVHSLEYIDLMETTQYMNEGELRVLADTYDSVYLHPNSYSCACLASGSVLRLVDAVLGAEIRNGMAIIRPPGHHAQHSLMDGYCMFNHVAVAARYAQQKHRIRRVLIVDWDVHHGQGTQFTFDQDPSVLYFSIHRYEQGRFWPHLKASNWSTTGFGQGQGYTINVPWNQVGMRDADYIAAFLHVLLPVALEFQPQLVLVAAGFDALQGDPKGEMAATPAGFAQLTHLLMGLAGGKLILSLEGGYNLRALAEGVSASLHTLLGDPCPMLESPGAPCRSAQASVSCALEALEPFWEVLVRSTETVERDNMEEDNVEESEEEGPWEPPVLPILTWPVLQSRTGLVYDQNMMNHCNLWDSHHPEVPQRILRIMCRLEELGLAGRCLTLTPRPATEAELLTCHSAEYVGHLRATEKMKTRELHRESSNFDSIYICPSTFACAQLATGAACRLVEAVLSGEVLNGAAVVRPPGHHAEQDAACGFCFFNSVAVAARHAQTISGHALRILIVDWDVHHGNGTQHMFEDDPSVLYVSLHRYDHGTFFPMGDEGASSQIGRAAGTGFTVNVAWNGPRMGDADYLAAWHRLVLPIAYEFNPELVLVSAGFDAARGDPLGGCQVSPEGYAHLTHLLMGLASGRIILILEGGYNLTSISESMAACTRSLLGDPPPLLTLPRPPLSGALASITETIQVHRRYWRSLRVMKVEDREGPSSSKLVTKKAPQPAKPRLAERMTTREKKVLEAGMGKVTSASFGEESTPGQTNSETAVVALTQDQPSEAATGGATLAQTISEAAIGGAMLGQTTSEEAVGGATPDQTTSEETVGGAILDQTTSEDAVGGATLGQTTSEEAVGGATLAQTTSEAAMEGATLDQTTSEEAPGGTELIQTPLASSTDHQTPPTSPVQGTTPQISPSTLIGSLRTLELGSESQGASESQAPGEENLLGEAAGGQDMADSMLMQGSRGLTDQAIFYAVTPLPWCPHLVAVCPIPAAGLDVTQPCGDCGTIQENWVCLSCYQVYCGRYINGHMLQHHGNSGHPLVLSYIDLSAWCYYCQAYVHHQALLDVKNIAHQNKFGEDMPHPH
The data set is described as follows: biochemical.
Description: Inhibition of recombinant full length human N-terminal GST-tagged HDAC6 expressed in baculovirus infected sf9 insect cells pretreated with compound followed by Fluor de Lys deacetylase substrate addition by fluorescence method

On to `Cn1c(Sc2c(F)cc(C(=O)NO)cc2F)nnc1-c1ccc(CN2CCCCC2)cc1`, for which the pIC50 in the data set on PBMC and in the data set with 697 was less than 6.00 in each case. Moreover, the “Ratio IC50” value in data set [1] was determined as 101; in data set [3] it was 83; in [4], 814; in data set [6], 32; in data set [7], 126; in data set [8], 342. The “Ratio IC50” value in [10] is listed as 36. In addition, the remaining at […], 5 µM in [2] came out at 69%; in data set [11], 74%. The remaining at 4 h, 100 µM in [5] was found to be 75%; in [9], 90%.

As to `Cn1c(Sc2c(F)cc(C(=O)NO)cc2F)nnc1-c1cccs1`, the pIC50 with PBMC and with 697 was less than 6.00 throughout. Besides, the “Ratio IC50” value in data set [1] worked out at 171; in [3] it was 61; in [4] it was 763; in data set [6] it was 21; in [7], 155; in [8], 254. Also, the “Ratio IC50” value in [10] worked out at 55. For the same molecule, the remaining at […], 5 µM in [2] came to 83%; in data set [11], 71%. The remaining at 4 h, 100 µM in data set [5] was 87%; in data set [9], 99%. Besides, the “inhibition (INH)” value with Histone deacetylase is “Active”.

`Cn1c(Sc2c(F)cc(C(=O)NO)cc2F)nnc1-c1ncccc1F`: the pIC50 in the data set with PBMC and in the data set on 697 was less than 6.00 throughout. In addition, the “Ratio IC50” value in data set [1] is on record as 54; in [3], 38; in [4], 432; in data set [6], 64; in data set [7], 53; in data set [8], 250. Also, the “Ratio IC50” value in data set [10] turned out to be 24. Moreover, the remaining at […], 5 µM amounted to 80% in data set [2] and 70% in [11]. Also, the remaining at 4 h, 100 µM in [5] is 100%; in data set [9], 97%. The “inhibition (INH)” value in the data set on Histone deacetylase is reported as “Active”.

In the case of `CN1CCc2c(c3ccccc3n2Cc2ccc(C(=O)NO)cc2)C1` [TUBASTATIN A], the pIC50 (in general, the IC50 on a negative log10 scale, so that one unit is a factor of ten) with 697 was 5.70. In addition, the remaining at 4 h, 100 µM was 38% in data set [5] and 98% in [9].

`O=C(NO)c1ccc(Cn2cccn2)cc1` showed a pIC50 in data set [12] of 6.99.

In data set [12], `O=C(NO)c1ccc(Cc2noc(-c3ccccc3)n2)cc1` had a pIC50 of 8.22.

Molecule `O=C(CCCCCCNC(=O)c1cnc(N(c2ccccc2)c2ccccc2)nc1)NO` [RICOLINOSTAT] gave a pIC50 in the data set on 697 of 6.70. For the same molecule, the remaining at 4 h, 100 µM in data set [5] is 91%; in data set [9], 100%.

For `Cc1cc(-c2nnc(Sc3c(F)c(F)c(C(=O)NO)c(F)c3F)n2C)nn1C`, the pIC50 in [12] was 5.60.

Molecule `O=C(NO)c1ccc(Nc2nnc(-c3ccccc3)s2)cc1` gave a pIC50 in data set [12] of 7.18.

Turning to `O=C(NO)c1ccc(Cn2nnnc2-c2ccccc2)cc1`, in data set [12], the pIC50 was 8.05.

As to `O=C(NO)c1cnc(NC2(c3ccccc3)CC2)nc1`, the pIC50 with 697 is 5.47. In addition, the figures for the remaining at 4 h, 100 µM in data set [5] and in data set [9] were 12% and 100%, respectively.

`O=C(NO)c1ccc(Sc2nnc(-c3ccccc3)s2)cc1` gave a pIC50 in [12] of 8.22.

For the molecule `O=C(NO)c1ccc(Cc2nnc(-c3ccccc3)s2)cc1`, the negative-log IC50 (pIC50) in data set [12] is 7.80.

For `O=C(NO)c1cc(F)c(Cn2nnc(-c3ccccn3)n2)c(F)c1`, the pIC50 in the data set with PBMC and in the data set with 697 was less than 6.00 each time. Besides, the “Ratio IC50” value in [1] is listed as 141; in data set [3] it was 119; in [4], 1463; in data set [6] it was 138; in data set [7] it was 139; in data set [8] it was 696. The “Ratio IC50” value in data set [10] was 102. In addition, the values for the remaining at […], 5 µM in [2] and in data set [11] were 86% and 97%, respectively. The remaining at 4 h, 100 µM was determined as 87% in data set [5] and 96% in data set [9].

In turn, `Cn1c(Cc2ccc(C(=O)NO)cc2)nnc1-c1ccccc1` gave a pIC50 in data set [12] of 7.77.

Turning to `COc1ccc(CC(=O)N[C@@H](Cc2cscn2)C(=O)Nc2ccc(C(=O)NO)cc2)cc1OC`, the values for the pIC50 (with 697; in data set [12]) were less than 5.00 and 8.30, respectively. In addition, the remaining at 4 h, 100 µM is 18% in data set [5] and 100% in data set [9].

For the molecule `O=C(NO)c1ccc(-c2nnc(-c3ccccc3)o2)cc1`, the pIC50 in data set [12] was 6.18.

For the molecule `O=C(NO)c1ccc(Sc2nnc(-c3ccccc3)o2)cc1`, the pIC50 in [12] is 8.22.

For the molecule `Cc1cc(-c2nnc(Sc3ccc(C(=O)NO)c(F)c3)n2C)nn1C`, in data set [12], the pIC50 was 5.65.

In data set [12], `O=C(NO)c1ccc(Cc2nnc(-c3ccccc3)[nH]2)cc1` showed a pIC50 of 8.30.

As to `O=C(NO)c1ccc(Cn2nnc(-c3ncccn3)n2)cc1`, the pIC50 is less than 6.00 in the data set with PBMC, less than 6.00 with 697 and 8.15 in [12]. Further, the “Ratio IC50” value amounted to 721 in [1]; 146 in [3]; 111 in data set [4]; 46 in data set [6]; 665 in data set [7]; 103 in data set [8]. Besides, the “Ratio IC50” value in data set [10] amounted to 246. The remaining at […], 5 µM in data set [2] was found to be 83%; in data set [11], 99%. In addition, the remaining at 4 h, 100 µM came to 99% in data set [5] and 76% in data set [9].

`O=C(NO)c1cc(F)c(Cn2nnc(-c3ncccn3)n2)c(F)c1`: the pIC50 in the data set on PBMC and in the data set with 697 was less than 6.00 each time. Besides, the remaining at […], 5 µM stood at 89% in data set [2] and 96% in data set [11]. For the same molecule, the remaining at 4 h, 100 µM in [5] is 78%; in [9] it was 93%.

In the data set on 697, `O=C(NO)c1ccc(CC(=O)N(CCO)c2ccccc2)cc1` gave a pIC50 of 5.08. Besides, the remaining at 4 h, 100 µM in data set [5] came to 45%; in data set [9], 79%.

`CCCCN(Cc1ccc(C(=O)NO)cc1)C(=O)Nc1ccccc1` [NEXTURASTAT A]: the pIC50 in the data set with 697 is 6.40. In addition, the values for the remaining at 4 h, 100 µM in data set [5] and in [9] were 40% and 100%, respectively.

With `CCN(CC)Cc1ccc2cc(COC(=O)Nc3ccc(C(=O)NO)cc3)ccc2c1` [GIVINOSTAT], the pIC50 in the data set on PBMC is 6.50; in the data set with 697, 7.00. The remaining at […], 5 µM came out at 83% in [2] and 6% in data set [11]. Besides, the remaining at 4 h, 100 µM is 72% in data set [5] and 97% in [9].

With `O=C(NO)c1ccc(Sc2ncc(-c3ccccc3)s2)cc1`, the pIC50 in data set [12] is 7.21.

Molecule `Cc1csc(Nc2ccc(C(=O)NO)cc2)n1` showed a pIC50 in data set [12] of 6.86.

For the origin of these results see ChEMBL document CHEMBL4414648, “Novel Benzohydroxamate-Based Potent and Selective Histone Deacetylase 6 (HDAC6) Inhibitors Bearing a Pentaheterocyclic Scaffold: Design, Synthesis, and Biological Evaluation” (J Med Chem, 2019).
